Test results reported in patent US5948931A (priority 1997, dated 1999).
Counter-ions that a name gives are not always drawn. Like-named read-outs stand apart in the source and are kept apart here.

Experiments:
[1] = about pH 5-8, preferably about pH 6-7
[2] = Kinetic measurements of hydrolysis (release of p-nitrophenoxide), effect of Mg2+; format: physicochemical; conditions: for enhancement of hydrolysis rate by MgCl2 (factor): 0.2 M MgCl2, pH 8.5, 25° C.
Source text: Kinetic Measurements of the Hydrolysis of E-19.

[3] = Stability / hydrolysis-fragmentation of E-16 (anilinium salt E-19) in water; format: physicochemical; conditions: for half-life: read-out: t1/2 of decomposition in H2O (converted)
Procedure: Stability of E-19. These experiments were carried out in 5 mm glass NMR tubes at 22° C., concentration of E-4 0.1% (w/v).

[4] = Kinetics of hydrolysis of PNHDA, dependence on pH and Ni2+; format: physicochemical; design: K / K': unit not given here
Procedure: The rates of hydrolysis of p-nitrophenyl(hydroxyimino)-(dihydroxyphosphinyl)acetate (16) were determined with Shimadzu UV-260 spectrophotometer by monitoring appearance of thep-nitrophenol at 400 nm (pH 6-11) and 317 nm (pH 4-5) and disappearance of reactant (16) at 217 nm (pH 4-5). The product spectra were quantitatively identified with those of equivalent concentration of p-nitrophenol under the same conditions. Reaction mixture pH values were measured. at 25 and 50° C. with a Beckman Model 71 pH meter. For non-metal ion-assisted reactions, a few buffer solutions were prepared with EDTA (2×10^-5) as a precaution against trace metal ions in the buffer and salts, but the same results were obtained as with the non-EDTA-containing buffers. Buffers employed were acetate (pH 4.2-5.3), N-ethyl morpholine (pH 6.7-7.8), and borate (pH 8-11). The buffer concentrations were 0.02-0.01 M (no significant catalytic effect). The ionic strength was 0.5-1.0 M, maintained with NaCl.
To initiate a kinetic run, 50-100 μl of 19 stock solution (0.002 M in H2 O) was injected into 2-3 ml of reactant solution maintained at the desired temperature. The reactions followed pseudo-first-order kinetics for at least 3 half-lives. Kinetic parameters were calculated with a linear least-squares computer program.

[5] = Stability of DCHA+ salts 3 heated in different solvents (31P NMR); format: physicochemical; conditions: conditions similar to refluxing AN
Procedure: Stability of DCHA^+ Salts 3 Heated in Different Solvents. 40 mg 3 (E or Z) was heated in 5 ml of alcohol mixture, H2 O or acetonitrile. Reaction progress was monitored by ^31 P NMR spectroscopy.

## O=C(O)/C(=N\O)P(=O)(O)O [E-7, α-(hydroxyimino)phosphonoacetic acid]
[1]
  phosphorylating activity: active phosphorylating agent

## COP(=O)(O)/C(=N/O)C(=O)O [E-8, (E)-(hydroxyimino)(hydroxymethoxyphosphinyl)acetic acid]
About pH 7, about 24 hours, room temperature
  stability in water: stable
pH 1.5
  methyl phosphate formed: 15%
  methyl phosphorocyanidate formed: 85%
  rate of E-8→Z-8→15 relative to dissociative fragmentation: about 6 ×
pH 1.5, over 2.5 hours
  decomposition: quantitatively decomposed
pH 7, 25° C.
  reactivity: unreactive

## O=C(Oc1ccc([N+](=O)[O-])cc1)/C(=N\O)P(=O)(O)O [E-16, p-nitrophenyl (E)-(dihydroxyphosphinyl)(hydroxyimino)acetate]
[2]; 0.2 M MgCl2
  rate of release of p-nitrophenoxide vs. p-nitrophenyl acetate (times faster): 40 ×
[2]
  enhancement of hydrolysis rate by MgCl2 (factor): 2.5 (±0.1)
[2]; pH 8.5, 25° C., no Mg2+
  rate of release of p-nitrophenoxide vs. p-nitrophenyl acetate (times faster): 20 ×
[2]; qualitative
  acceleration of p-nitrophenyl ester hydrolysis by (E)-oxime group: several orders of magnitude
[3]; pH 6.5
  phosphate among products: 92%
  phosphorocyanidate among products: 8%
[3]; pH 8.5
  phosphate among products: 80%
  phosphorocyanidate among products: 20%
[3]; pH 8.5, 1:1 water:methanol
  phosphoric acid and methyl phosphate, total: 34%
[3]; pH 8.5, presence of Mg2+
  formation of phosphorocyanidate: not observed
  hydrolysis rate in words: faster
[3]; pH about 3, 52 hr
  phosphate among products: 100%
[3]; water, pH 3, pH about 3, 52 hr, read-out: decomposition in H2O
  degraded at 52 h: < 4%
[3]; water, pH 6.5
  half-life: ~30 h
[3]; water, pH 8.5
  half-life: ~1 h
[4]; 0.01M Ni2+, pH 4.2
  enhancement of rate by Ni2+ (factor): 3
[4]; 0.01M Ni2+, pH 6.5
  enhancement of Kobsd by Ni2+ (factor): 28
[4]; 0.01M Ni2+, pH 7.4
  enhancement of Kobsd by Ni2+ (factor): 20
[4]; constant pH
  Ni2+ concentration with saturation effect on Kobsd: 7 mM
[4]; pH 4.2, Ni = 0.01M, 50° C.
  K: 0.015
  log (k): -1.824
[4]; pH 4.2, no metal ion, 50° C.
  K: 0.0049
  log (k): -2.311
[4]; pH 5.2, no metal ion, 50° C.
  K: 0.0156
  K': 0.0165
  log (K'): -1.78
  log (k): -1.807
[4]; pH 6.5, Ni = 0.01M, 50° C.
  K: 0.31
  log (k): -0.509
[4]; pH 6.5, no metal ion, 50° C.
  K: 0.011
  K': 0.009
  log (K'): -2.05
  log (k): -1.959
[4]; pH 7.4, Ni = 0.01M, 50° C.
  K: 1.127
  K': 1.1
  log (K'): 0.041
  log (k): 0.052
[4]; pH 7.4, no metal ion, 50° C.
  K: 0.0563
  K': 0.0605
  log (K'): -1.22
  log (k): -1.249
[4]; pH 8.5, no metal ion, 25° C.
  K: 0.052
  K': 0.05635
  log (K'): -1.249
  log (k): -1.288
[4]; pH 9, no metal ion, 25° C.
  K: 0.101
  K': 0.101
  log (K'): -0.996
  log (k): -0.997
[4]; pH 9.5, no metal ion, 25° C.
  K: 0.33
  K': 0.33
  log (K'): -0.481
  log (k): -0.481
[4]; pH 10, no metal ion, 25° C.
  K: 0.629
  K': 0.603
  log (K'): -0.22
  log (k): -0.201
[4]; pH 11, no metal ion, 25° C.
  K: 1.2
  K': 1.249
  log (K'): 0.0966
  log (k): 0.079
[4]; pH<7
  hydroxide dependence of hydrolysis: independent of hydroxide ion concentrations
[4]; pH>8
  hydroxide dependence of hydrolysis: hydroxide ion catalyzed
  slope of log Kobsd vs pH: 0.8

## O=C(Oc1ccc([N+](=O)[O-])cc1)/C(=N\O)P(=O)(O)O [E-19, Anilinium Salt of p-Nitrophenyl (E)-(Hydroxyimino)(dihydroxyphophinyl)acetate]
[2]; pH 8.5, 25° C.
  reaction order of hydrolysis: pseudo-first order
[3]; anilinium salt, storage
  storage stability: stable to storage

## COP(=O)(O)C(=NO)c1ccccc1 [methyl α-(hydroxyimino)benzylphosphonate anion, reference compound]
[5]
  thermal stability: thermally stable

## CC(=O)Oc1ccc([N+](=O)[O-])cc1 [p-nitrophenyl acetate, reference compound]
[2]
  enhancement of hydrolysis rate by MgCl2 (factor): not altered significantly
[2]; pH 8.5, 25° C.
  reaction order of hydrolysis: pseudo-first order
